Measured values: US20240300975A1, “DIMETHYL-SUBSTITUTED THIAZOLOLACTAM COMPOUND AND USE THEREOF” (D3 Bio (Wuxi) Co., Ltd., priority 2021, published 2024)
pIC50: −log10 of the molar value.

Assays:
[1] = tested on: HT29 tumor cells; assay: In vitro cell proliferation inhibition (CellTiterGlo); type: cell-based; conditions: Homo sapiens, HT-29
Procedure: The ability of compounds to inhibit the proliferation of HT29 tumor cells was measured.
The assay compound was dissolved in 100% DMSO to prepare 10 mM stock solution.
• a) UV light of a biological safety cabin was turned on, and 30 minutes were counted down; • b) In a 37° C. water bath, RPMI1640 medium and trypsin were preheated; • c) After completion of the UV irradiation, the biological safety cabin was opened. The preheated medium, trypsin and phosphate buffered saline (PBS), etc. were wiped with alcohol and placed in the biological safety cabin; • d) HT29 cells were removed from the incubator, and the old medium was removed in biological safety cabin. 10 ml of PBS was added. […] The culture vessel was shaken horizontally so that the trypsin evenly covered the cells at the bottom, and placed in an incubator for 2 minutes; • f) Cell digestion was stopped with complete medium, and the cell suspension was pipetted to homogeneity and counted; • g) According to the result of cell counting, the density of cell suspension was adjusted to 1500 cells per well, and the cell suspension was seeded at 50 μl per well; • h) The stock solution of compounds was serially diluted in DMSO solution, and compounds were added to cell plate using Tecan; • i) The compound-added cell plate and CellTiterGlo were equilibrated at room temperature, and 25 microliters of CellTiterGlo was then added to each well. […]

[2] = target: ERK2 (Homo sapiens (Human), UniProt P28482); assay: In vitro ERK2 kinase activity assay (33P-ATP, filter-binding); type: biochemical
Chain of ERK2 (P28482 whole entry): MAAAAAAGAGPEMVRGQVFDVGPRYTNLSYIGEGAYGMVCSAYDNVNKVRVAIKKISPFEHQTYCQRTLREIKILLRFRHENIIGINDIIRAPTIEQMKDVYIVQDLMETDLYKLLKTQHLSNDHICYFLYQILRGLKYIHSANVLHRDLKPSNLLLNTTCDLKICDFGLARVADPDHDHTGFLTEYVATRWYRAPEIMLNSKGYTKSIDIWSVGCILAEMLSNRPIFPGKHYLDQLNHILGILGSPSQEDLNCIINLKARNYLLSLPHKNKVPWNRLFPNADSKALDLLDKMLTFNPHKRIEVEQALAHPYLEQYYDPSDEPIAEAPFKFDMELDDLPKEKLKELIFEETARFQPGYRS
Procedure: The ability of compounds to inhibit ERK1 and ERK2 kinase activity was measured.
20 mM Hepes (pH 7.5), 10 mM MgCl2, 1 mM ethylenebis(oxyethylenenitrilo)tetraacetic acid (EGTA), 0.02% Brij35, 0.02 mg/mL bovine serum albumin (BSA), 0.1 mM Na3VO4, 2 mM dithiothreitol (DTT), 1% DMSO.
The assay compound was dissolved in 100% DMSO to prepare a stock solution of specific concentration. The compound was serially diluted in DMSO solution using Integra Viaflo Assist smart pipette.
• a) The substrate MBP was prepared in freshly prepared reaction buffer; • b) ERK1 (or ERK2) kinase was added to the above-mentioned MBP solution and mixed gently; • c) The compound dissolved in 100% DMSO was added to the kinase reaction system using ultrasound technology (Echo550; nanoliter range), and the mixture was incubated at room temperature for 20 minutes; • d)^33P-ATP (specific concentration of […]) was added to the reaction system, and the reaction was started at this time; • e) The mixture was incubated at room temperature for 2 hours; • f) The amount of radioactivity was detected by filter-binding method; • g) ERK1 (or ERK2) kinase activity was calculated as the ratio of the remaining kinase activity in the assay sample to the kinase activity of the control group (treated by DMSO).
Curve was fitted using Prism (GraphPad software) and IC50 values were calculated.

Cc1cccc(CN2C(=O)c3nc(-c4nc(NC5CCOCC5)ncc4C)sc3C2(C)C)n1 [WX002]
pIC50 [1]: 7.34
pIC50 [2]: 9.33

Cc1cccc(CN2C(=O)c3nc(-c4ccnc(Nc5ccnn5C)n4)sc3C2(C)C)n1 [WX003]
pIC50 [2]: 9.03

CCc1cnc(Nc2ccnn2C)nc1-c1nc2c(s1)C(C)(C)N(Cc1cccc(C)n1)C2=O [WX004]
pIC50 [2]: 9.47
